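In this assay, cells in 96-well plates receive the compound at five concentrations for 48 hours. Endpoints are linearly interpolated between the surrounding concentrations. At the GI50, growth is halved.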 Active and inactive are the calls of the source. No stated cut-off is given here; in the data, active = GI50 up to about 1.1 µM and inactive = higher.

Among the test systems are SF-268; T47D; SK-MEL-2; UACC-257; RXF 393; BT-549; CAKI-1; OVCAR-8; SNB-75; MDA-MB-435; Hs-578T; SW-620; SK-OV-3; ACHN; 786-0; HCC 2998; HOP-92; PC-3; HOP-62; SN12C.
Test in all cases: NCI tumour cell line growth inhibition, 48 h

As to `O=C(O)CSSCC(=O)O`, the GI50 in the assay with SF-268, in the assay on T47D, in the assay with SK-MEL-2, in the assay on UACC-257, with RXF 393 and with BT-549 was > 100 µM (inactive) each time. Besides, the GI50 with CAKI-1, in the assay with OVCAR-8, in the assay with SNB-75, in the assay with MDA-MB-435, in the assay on Hs-578T and in the assay on SW-620 was > 100 µM (inactive) in each case. For the same compound, the GI50 in the assay on SK-OV-3, in the assay on ACHN, with 786-0, in the assay on HCC 2998, in the assay with HOP-92 and with PC-3 was > 100 µM (inactive) in each case. The GI50 with HOP-62 and in the assay with SN12C was > 100 µM (inactive) in each case.
In the case of `CS(=O)(=O)N1CC(CCl)c2ccc([N+](=O)[O-])cc21` (stereo unspecified), the GI50 with SF-268, in the assay with T47D, in the assay with SK-MEL-2, in the assay on UACC-257, in the assay with RXF 393 and in the assay with BT-549 was > 100 µM (inactive) throughout. Besides, the GI50 in the assay with CAKI-1 was > 100 µM (inactive); with OVCAR-8, > 100 µM (inactive); with SNB-75, < 0.01 µM (active); with MDA-MB-435, > 100 µM (inactive); with Hs-578T, 70.1 µM (inactive); in the assay on SW-620, > 100 µM (inactive). Moreover, the GI50 with SK-OV-3, in the assay on ACHN, in the assay on 786-0, in the assay on HCC 2998, in the assay on HOP-92 and with PC-3 was > 100 µM (inactive) throughout. The GI50 with HOP-62 and in the assay with SN12C was > 100 µM (inactive) each time.
In the case of `COc1cc(OC)c2c(O)c(S(=O)(=O)c3ccc(C)cc3)c(=O)oc2c1`, the GI50 with SF-268, in the assay on T47D, in the assay on SK-MEL-2, in the assay on UACC-257, in the assay with RXF 393 and in the assay with BT-549 was > 100 µM (inactive) each time. Moreover, the GI50 is > 100 µM (inactive) in the assay on CAKI-1; > 100 µM (inactive) with OVCAR-8; > 100 µM (inactive) in the assay on SNB-75; > 100 µM (inactive) with MDA-MB-435; 94.6 µM (inactive) with Hs-578T; > 100 µM (inactive) in the assay with SW-620. For the same compound, the GI50 in the assay on SK-OV-3, with ACHN, with 786-0, with HCC 2998, with HOP-92 and in the assay on PC-3 was > 100 µM (inactive) in each case. For the same compound, the GI50 with SN12C was > 100 µM (inactive).
As for `CCOC(=O)C(CCN1CCC2(CC1)C(=O)N(C)CN2c1ccccc1)C(=O)OCC`, the GI50 in the assay on SF-268, with T47D, in the assay with SK-MEL-2, with UACC-257, in the assay on RXF 393 and with BT-549 was > 100 µM (inactive) each time. Further, the GI50 with CAKI-1, in the assay with OVCAR-8, with SNB-75, with MDA-MB-435, with Hs-578T and in the assay with SW-620 was > 100 µM (inactive) each time. Besides, the GI50 was > 100 µM (inactive) in the assay on SK-OV-3; > 100 µM (inactive) in the assay with ACHN; > 100 µM (inactive) in the assay on 786-0; 57.7 µM (inactive) with HCC 2998; > 100 µM (inactive) in the assay with HOP-92; > 100 µM (inactive) in the assay on PC-3. The GI50 with HOP-62 and with SN12C was > 100 µM (inactive) throughout.
Consider `CC(O)CC(=O)CO[C@H]1[C@H](O)[C@@H](O)[C@@H](O)[C@@H]2NC(=O)c3c(cc4c(c3O)OCO4)[C@H]21` (stereo partly specified), for which the GI50 was 0.0222 µM (active) with SF-268; 0.0222 µM (active) with T47D; 0.0363 µM (active) in the assay on SK-MEL-2; 0.0397 µM (active) in the assay on UACC-257; 0.0208 µM (active) in the assay with RXF 393; 0.0509 µM (active) with BT-549. The GI50 is 0.512 µM (active) in the assay with CAKI-1; 0.0332 µM (active) with OVCAR-8; 0.0472 µM (active) in the assay with SNB-75; 0.0386 µM (active) in the assay on MDA-MB-435; 0.0398 µM (active) with Hs-578T; 0.109 µM (active) in the assay on SW-620. Besides, the GI50 in the assay with SK-OV-3 was 0.0617 µM (active); in the assay with ACHN, 0.0391 µM (active); in the assay on 786-0, 0.0439 µM (active); in the assay with HCC 2998 it was 0.0181 µM (active); with HOP-92, 0.0377 µM (active); with PC-3 it was 0.0272 µM (active). The GI50 is 0.0289 µM (active) in the assay with HOP-62 and 0.0266 µM (active) in the assay on SN12C.
Consider `O=C1C=C(c2ccccc2)O/C1=C\C(=O)c1ccc(Cl)cc1`, for which the GI50 is 20 µM (inactive) in the assay with SF-268; 23.3 µM (inactive) in the assay with T47D; 18.2 µM (inactive) with UACC-257; 17.7 µM (inactive) in the assay with RXF 393; 12.5 µM (inactive) in the assay on BT-549; 18.1 µM (inactive) in the assay on CAKI-1. For the same compound, the GI50 in the assay with OVCAR-8 is 22.6 µM (inactive); in the assay with SNB-75, 4.84 µM (inactive); in the assay on MDA-MB-435, 15.8 µM (inactive); in the assay on Hs-578T it was 21.9 µM (inactive); in the assay with SW-620 it was 1.73 µM (inactive); in the assay on SK-OV-3 it was 98.4 µM (inactive). Also, the GI50 with ACHN is 16.1 µM (inactive); in the assay with 786-0, 14.3 µM (inactive); in the assay on HCC 2998, 28.3 µM (inactive); in the assay on HOP-92, 19.2 µM (inactive); in the assay on PC-3, 16.7 µM (inactive); in the assay with HOP-62, > 100 µM (inactive). Besides, the GI50 in the assay with SN12C was 3.66 µM (inactive).
Regarding `COC(=O)c1cc(C#Cc2cc(OC)ccc2OC)ccc1OC`, the GI50 was 75.7 µM (inactive) in the assay with SF-268; 2.04 µM (inactive) with T47D; 43.5 µM (inactive) with SK-MEL-2; 37.2 µM (inactive) in the assay with UACC-257; 21.3 µM (inactive) in the assay with RXF 393; 37.7 µM (inactive) in the assay with BT-549. For the same compound, the GI50 was 60 µM (inactive) with CAKI-1; 37.1 µM (inactive) with OVCAR-8; 33.8 µM (inactive) in the assay on SNB-75; 41.3 µM (inactive) in the assay with MDA-MB-435; > 100 µM (inactive) with Hs-578T; > 100 µM (inactive) in the assay with SW-620. Besides, the GI50 was 45.4 µM (inactive) in the assay on SK-OV-3; 42.7 µM (inactive) in the assay with ACHN; 51.3 µM (inactive) in the assay on 786-0; > 100 µM (inactive) in the assay with HCC 2998; 22.9 µM (inactive) in the assay with HOP-92; 40.7 µM (inactive) with PC-3.

Values taken from ChEMBL document CHEMBL1201862, “PubChem BioAssay data set” (2004).
